{"source": "patent US20110086898A1", "about": "“PYRAZOLOOXAZOLE COMPOUND” (Eisai R&D Management Co., Ltd., priority 2009, published 2011)", "origin": "cited, not measured here", "key": {"[1]": {"system": "naltrexone-induced morphine withdrawal symptoms", "conditions": "pretreatment; Journal of Neurochemistry, 74: 199-208 (2000); cited from earlier work"}, "rats [2]": {"system": "rats", "conditions": "Psychopharmacology, 137:184-190 (1998); cited from earlier work"}, "[3]": {"system": "gastric emptying retardation after surgery", "conditions": "Gastroenterology, 125:654-659 (2003); cited from earlier work"}, "rats [4]": {"system": "rats", "conditions": "European Journal of Pharmacology, 492:195-201 (2004); cited from earlier work"}, "rats [5]": {"system": "rats", "conditions": "Psychopharmacology, 150:317-324 (2000); cited from earlier work"}, "[6]": {"system": "learning disability following acute stress", "conditions": "Behavioural Brain Research, 138: 207-213 (2003); cited from earlier work"}, "high-anxiety rats": {"system": "high-anxiety rats", "conditions": "particularly in high-anxiety rats; Journal of Psychiatric Research, 36:197-208 (2002); cited from earlier work"}, "[7]": {"system": "depression, depressive symptoms, anxiety", "conditions": "Journal of Psychiatric Research, 34:171-181 (2000); cited from earlier work"}, "rats [8]": {"system": "rats", "conditions": "European Journal of Neuroscience, 13:373-380 (2001); cited from earlier work"}, "[9]": {"system": "hippocampal tau phosphorylation", "conditions": "Journal of Neuroscience, 27 (24): 6552-6562 (2007); cited from earlier work"}, "[10]": {"system": "hypertension induced by intraventricular administration of CRF", "conditions": "Brain Research, 881: 204-207 (2000); cited from earlier work"}}, "data": [{"smiles": "CCCCN(CC)c1nc(C)nc2c1c(C)cn2-c1c(C)cc(C)cc1C", "note": "[CP-154526]", "values": [{"measurement": "naltrexone-induced morphine withdrawal symptoms", "setting": "[1]", "result": "inhibits"}, {"measurement": "recurrence of stress-elicited drug (heroin, cocaine)-seeking behavior", "setting": "rats [2]", "result": "inhibits"}, {"measurement": "gastric emptying retardation after surgery", "setting": "[3]", "result": "recovers"}, {"measurement": "anti-depressant and anti-anxiety actions", "setting": "rats [4]", "result": "exhibits anti-depressant and anti-anxiety actions"}, {"measurement": "recurrence of stress-elicited alcohol-seeking behavior", "setting": "rats [5]", "result": "inhibits"}, {"measurement": "learning disability following acute stress", "setting": "[6]", "result": "inhibits"}]}, {"smiles": "CCCN(CCC)c1cc(C)nc2c(-c3cnc(N(C)C)cc3C)c(C)nn12", "note": "[Example R121919]", "values": [{"measurement": "stress-related sleep disorder", "setting": "high-anxiety rats", "result": "inhibits"}, {"measurement": "ameliorating depression, depressive symptoms, anxiety", "setting": "[7]", "result": "effective"}, {"measurement": "anti-anxiety action", "setting": "rats [8]", "result": "exhibits an anti-anxiety action"}]}, {"smiles": "CCCCN(CC)c1nc(C)nc2c1c(C)c(C)n2-c1c(C)cc(C)cc1C", "note": "[antalarmin]", "values": [{"measurement": "stress-induced hippocampal tau phosphorylation", "setting": "[9]", "result": "inhibits"}, {"measurement": "hypertension induced by intraventricular administration of CRF", "setting": "[10]", "result": "inhibits"}]}]}
